Test results published in BindingDB's records for doi:10.7270/Q2B27SQ0 (Nmmlsc, 2008).
Counter-ions that a name gives are not always drawn.

Target: Apoptosis regulator Bcl-2 (Homo sapiens, UniProt P10415)
Assay: PubChem AID 950
[1] = inactive by the depositor's call

Apoptosis regulator Bcl-2, sequence (P10415 whole entry): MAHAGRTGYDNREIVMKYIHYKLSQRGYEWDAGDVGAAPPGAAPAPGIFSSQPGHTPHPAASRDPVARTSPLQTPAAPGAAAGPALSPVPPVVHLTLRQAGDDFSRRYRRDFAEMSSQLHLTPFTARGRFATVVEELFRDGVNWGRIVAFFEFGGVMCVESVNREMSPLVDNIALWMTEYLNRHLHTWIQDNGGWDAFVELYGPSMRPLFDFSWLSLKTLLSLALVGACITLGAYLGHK

Structure (SMILES) | EC50 [1] | EC50
CNc1ccc(Br)cc(C(=O)/C=C/c2cccc(OC)c2)c1=O [4-bromo-2-[3-(3-methoxyphenyl)acryloyl]-7-(methylamino)-2,4,6-cycloheptatrien-1-one] | 55 µM | 
O=C1/C(=C\c2ccc(-c3ccccc3Cl)o2)SC(=S)N1CC1CCCO1 (stereo not given) [(5E)-5-[[5-(2-chlorophenyl)furan-2-yl]methylidene]-3-(oxolan-2-ylmethyl)-2-sulfanylidene-1,3-thiazolidin-4-one] |  | 2.33 µM
Cc1cc(C)nc(SCc2cc(=O)c(OC(=O)c3ccc(Cl)c([N+](=O)[O-])c3)co2)n1 [4-chloro-3-nitrobenzoic acid [6-[[(4,6-dimethyl-2-pyrimidinyl)thio]methyl]-4-oxo-3-pyranyl] ester] | 8.45 µM | 
O=C(c1ccccc1)c1ccc2nc(-c3ccco3)c(-c3ccco3)nc2c1 | 16 µM | 
Nc1ccc(C2=Nc3cccc4cccc(c34)N2)cc1 [SMR000175908] | 18.1 µM | 
Fc1ccc(C2=Nc3cccc4cccc(c34)N2)cc1 [MLS000687139] | 9.27 µM | 
Clc1nss/c1=N\c1ccc(Br)cc1 [N-(4-bromophenyl)-4-chloro-5-dithiazolimine] | 49.8 µM | 
O=C(Nc1ccccc1)c1ccc2nc(-c3ccco3)c(-c3ccco3)nc2c1 [2,3-di-2-furyl-N-phenyl-6-quinoxalinecarboxamide] | 36.5 µM | 
Clc1ccc2c(N=NCc3ccccc3Br)ccnc2c1 [MLS000336087] |  | 9.15 µM
CCOC(=O)C1CCN(C(=O)Nc2ccc3nc(-c4ccco4)c(-c4ccco4)nc3c2)CC1 [MLS000113285] |  | 6.65 µM
Cc1ccc(-c2ccc(/C=C/C(=O)c3ccccc3)o2)cc1 | 8.47 µM | 
Cc1nc2ncccn2c1-c1csc(Nc2ccc(O)cc2)n1 |  | 0.67 µM
CCOc1ccccc1CNc1ccc(O)cc1 | 3.63 µM | 
Cc1cc2n(c1)CCn1c(C)ccc1-2 [MLS000104384] | 15.9 µM | 
COc1cc2nc(=S)[nH]c(NCCc3ccc(S(N)(=O)=O)cc3)c2cc1OC [MLS000674601] | 0.54 µM | 
COc1ccc(/C=C/C(=O)c2cc(Br)ccc(=O)c2O)cc1 [MLS000702099] | 33.6 µM | 
CN1CCc2cccc3c2[C@H]1Cc1ccc(O)c(O)c1-3 [APOMORPHINE HYDROCHLORIDE] |  | 42.3 µM
O=C(/C=C/c1ccccc1Cl)c1ccccc(=O)c1O [3-[(E)-3-(2-chlorophenyl)prop-2-enoyl]-2-oxidanyl-cyclohepta-2,4,6-trien-1-one] | 15 µM | 
COCCCn1c(N)c(C(=O)Nc2sc3c(c2C(=O)OC)CCCC3)c2nc3ccccc3nc21 [MLS000595323] | 1.95 µM | 
COc1ccc2c3c(cccc13)N(C)N=C2C [MLS000554700] |  | 2.01 µM
Cc1cccc(OCC(=O)NCC(=O)NN=Cc2cc(Br)ccc2OCc2ccccc2)c1 [N-[(5-bromanyl-2-phenylmethoxy-phenyl)methylideneamino]-2-[2-(3-methylphenoxy)ethanoylamino]ethanamide] | 5.73 µM | 
O=C(Nc1ccc(N2CCOCC2)cc1)Nc1ccc2nc(-c3ccco3)c(-c3ccco3)nc2c1 [N-(2,3-di-2-furyl-6-quinoxalinyl)-N'-[4-(4-morpholinyl)phenyl]urea] | 8.89 µM | 
COc1ccc(C2=Nn3c(nnc3-c3ccco3)SC2)cc1OC [6-(3,4-Dimethoxy-phenyl)-3-furan-2-yl-7H-[1,2,4]triazolo[3,4-b][1,3,4]thiadiazine] | 1.21 µM | 
O=C(/C=C\c1ccc(-c2ccccc2)o1)c1ccccc1 [(Z)-1-phenyl-3-(5-phenyl-2-furanyl)-2-propen-1-one] | 34.9 µM | 

Structure (SMILES) | EC50 [1] | EC50
O=C1c2ccccc2-c2onc3ccc(NCCCn4ccnc4)c1c23 [SMR000044769] |  | 4.05 µM
Clc1nc(NCc2cccnc2)nc(N2CCOCC2)n1 [MLS000121154] | 24.9 µM | 
O=C(Nc1cccc(C(F)(F)F)c1)c1ccc2nc(-c3ccco3)c(-c3ccco3)nc2c1 [SMR000142217] | 10.9 µM | 
Cc1ccc(NC2=C(NC(=O)c3ccccc3)C(=O)c3ccccc3C2=O)cc1Cl [MLS000392290] | 4.38 µM | 
Cc1cc(N)ccc1N1CCCC1 [3-methyl-4-(1-pyrrolidinyl)aniline;hydrochloride] |  | 13.7 µM
C#CCn1cc(C=C2C(=O)c3ccccc3C2=O)c2ccccc21 [SMR000196125] | 13.8 µM | 
CCC(=O)N(CC)C1C(=O)C(=O)c2ccccc2C1=O (stereo not given) [N-ethyl-N-(1-hydroxy-3,4-dioxo-2-naphthalenyl)propanamide] |  | 0.98 µM
c1ccc(C2=Nc3cccc4cccc(c34)N2)cc1 | 26.5 µM | 
OCCN1CCN(CCCc2c3c(cc4c2CCC4)CCC3)CC1 [MLS000698424] |  | 17.9 µM
CC(C)(C)NC(=O)COc1ccc(CNc2ccc3[nH]c(O)nc3c2)cc1 [N-tert-butyl-2-[4-[[(2-oxidanylidene-1,3-dihydrobenzimidazol-5-yl)amino]methyl]phenoxy]ethanamide] | 4.65 µM | 
COc1ccc(CCNC(=O)c2ccc3nc(-c4ccco4)c(-c4ccco4)nc3c2)cc1OC [N-[2-(3,4-dimethoxyphenyl)ethyl]-2,3-di-2-furylquinoxaline-6-carboxamide] | 13.6 µM | 
CN(C)c1ncc(C2=C(Cl)C(=O)C(N3CCCC3)=C(Cl)C2=O)s1 | 0.21 µM | 
COc1ccc2nc(-c3ccco3)c(-c3ccco3)nc2c1 [2,3-di-2-furyl-6-methoxyquinoxaline] | 14.4 µM | 
O=C1C(=Cc2ccco2)NC(=S)N1c1ccccc1 [(5E)-5-(furan-2-ylmethylidene)-3-phenyl-2-sulfanylideneimidazolidin-4-one] | 27.2 µM | 
Cc1ccc(-c2ccc(/C=C3\SC(N4CCOCC4)=NC3=O)o2)cc1 [(5Z)-5-[[5-(4-methylphenyl)-2-furanyl]methylidene]-2-(4-morpholinyl)-4-thiazolone] | 44.6 µM | 
CN(C)[C@@H]1C(=O)C(C(=O)NCN2CCCC2)C(=O)[C@@]2(O)C(=O)C3C(=O)c4c(O)cccc4[C@@](C)(O)C3CC12 (stereo partly drawn) [(2Z,4S,6S,12aS)-4-(dimethylamino)-6,10,11,12a-tetrahydroxy-2-[hydroxy-(1-pyrrolidinylmethylamino)methylidene]-6-methyl-4,4a,5,5a-tetrahydrotetracene-1,3,12-trione] |  | 23.7 µM
CCOC(=O)c1c(O)nc2ccc(Cl)c3c2c1-c1ccccc1C3=O [MLS000704595] | 7.65 µM | 
N#Cc1cc(-c2ccccc2)nn1-c1ccccc1 | 39.6 µM | 
COC(=O)c1c(C(=O)OC)c2cccc3cc(-c4ccccc4)c4ccc1c4n32 [SMR000161417] | 1.8 µM | 
O=[N+]([O-])c1ccc(N=NCc2ccc(O)c(O)c2O)c(S(=O)(=O)N2CCOCC2)c1 [MLS000336720] |  | 4.66 µM
CCC(/C=C1\Sc2ccc(OC)cc2N1CCO)=C\c1sc2ccc(OC)cc2[n+]1CCO |  | 16.1 µM
COc1cc(CN=Nc2nn3cnnc3c3ccccc23)ccc1O [(4E)-2-methoxy-4-[[2-([1,2,4]triazolo[3,4-a]phthalazin-6-yl)hydrazinyl]methylidene]cyclohexa-2,5-dien-1-one] |  | 8.47 µM
CN(C)c1ccc(C=C2C(=O)NC(=O)NC2=O)cc1[N+](=O)[O-] [5-[[4-(dimethylamino)-3-nitrophenyl]methylidene]-1,3-diazinane-2,4,6-trione] | 16.4 µM | 
Nc1c(C(=O)NC2CC2)sc2nc3c(c(-c4ccco4)c12)CC/C3=C/c1ccco1 [SMR000259554] |  | 4.67 µM

Structure (SMILES) | EC50 [1] | EC50
C=CCn1c(SCC(=O)Nc2ccc3c(c2)OCO3)nnc1-c1cc(Br)ccc1O [2-[[(5Z)-4-allyl-5-(3-bromo-6-keto-cyclohexa-2,4-dien-1-ylidene)-1H-1,2,4-triazol-3-yl]thio]-N-(1,3-benzodioxol-5-yl)acetamide] |  | 15.8 µM
O=C1c2ccccc2-c2onc3ccc(NCc4ccco4)c1c23 [MLS000080234] | 37.8 µM | 
CCOC(=O)C1=C(Cc2ccc(OC)cc2)C(=O)c2ccccc2C1=O [SMR000136995] | 13.6 µM | 
CN(N=Cc1ccncc1)C1=NS(=O)(=O)c2ccccc21 [isonicotinaldehyde (1,1-dioxido-1,2-benzisothiazol-3-yl)(methyl)hydrazone] | 2.44 µM | 
CC(=O)c1ccc(NC(=O)c2ccc3nc(-c4ccco4)c(-c4ccco4)nc3c2)cc1 [N-(4-acetylphenyl)-2,3-di-2-furyl-6-quinoxalinecarboxamide] |  | 8.54 µM
Cc1ccc(C)c(/C=C/C(=O)c2ccccc(=O)c2O)c1 | 19.4 µM | 
COc1ccc(-n2c(=O)c3ccccc3c3ccccc3c2=O)c(OC)c1 | 13.4 µM | 
CCOC(=O)c1ccc(Nc2nc(C(=O)OCC)nc3ccccc23)cc1 | 1.51 µM | 
CSc1nnc2c3cc(C)ccc3n(Cc3ccccc3)c2n1 [SMR000046397] | 29.4 µM | 
Cc1ccc(C=NNC(=O)CSc2nnc(-c3ccc(Cl)cc3)n2-c2ccccc2)o1 [SMR000218122] | 8.45 µM | 
CN1CCN(C2=C(Cl)C(=O)C(c3cnc(N4CCCCC4)s3)=C(Cl)C2=O)CC1 | 0.16 µM | 
COc1ccc(CC(=O)Nc2ccc(-c3nc4cc(C)ccc4o3)c(O)c2)cc1OC [2-(3,4-dimethoxyphenyl)-N-[(4Z)-3-keto-4-(5-methyl-3H-1,3-benzoxazol-2-ylidene)cyclohexa-1,5-dien-1-yl]acetamide] |  | 10 µM
Cc1cc(-c2csc(N)n2)c(C)n1C [4-(1,2,5-trimethyl-3-pyrrolyl)-2-thiazolamine] | 46.3 µM | 
COC(=O)CSc1ncnc2c1sc1nc(-c3ccco3)c3c(c12)CC(C)(C)OC3 [MLS000039339] | 27.6 µM | 
c1ccc(-c2nc(N3CCOCC3)[s+]n2-c2ccccc2)cc1 |  | 13.8 µM
COc1cc(C2Nc3cccc4cccc(c34)N2)ccc1OC(C)=O [Acetic acid 4-(2,3-dihydro-1H-perimidin-2-yl)-2-methoxy-phenyl ester] | 11.4 µM | 
Cc1nc2ncccn2c1-c1csc(Nc2ccccc2)n1 [4-(2-methyl-3-imidazo[1,2-a]pyrimidinyl)-N-phenyl-2-thiazolamine] | 8.93 µM | 
c1ccc(Nc2cccc(Nc3ccccc3)n2)cc1 [N,N'-diphenyl-2,6-pyridinediamine] | 2.79 µM | 
O=C(NC1=C(Nc2ccc(Cl)cc2)C(=O)c2ccccc2C1=O)c1ccccc1 | 17.9 µM | 
CCOC(=O)c1nc(Nc2ccc(C(=O)OC)cc2)c2ccccc2n1 [ethyl 4-(4-methoxycarbonylanilino)quinazoline-2-carboxylate] | 15.2 µM | 
CCN(CC)C(=O)COC(=O)c1cc(-c2ccco2)nc2ccccc12 [SMR000377201] | 4.95 µM | 
O=C(Nc1ccc2nc(-c3ccco3)c(-c3ccco3)nc2c1)N1CCN(c2ccccn2)CC1 | 8.86 µM | 
